Test results reported in patent US5965619A, “Method for treating patients having precancerous lesions with substituted indene derivatives” (Cell Pathways Inc., priority 1997, dated 1999).
Blank lines part the entries; values can stand above or below the compound they belong to.

Tests used:
[1] = system: human colon carcinoma cell line, HT-29; assay: HT-29 tumor cell growth inhibition, Sulforhodamine B (SRB) protein binding assay; type: cell-based; details: 144 h, six days continuous exposure
Procedure: These compounds were assayed for their effect on the human colon carcinoma cell line, HT-29 obtained from ATCC, (Rockville, Md.) to ascertain the degree of growth inhibition. Growth inhibition of this cell line is indicative of a benefit on precancerous lesions and neoplasms. The cell line and growth assay employed for these experiments is well characterized, and is used by the United States National Cancer Institute in its screening program for new anti-cancer drugs.
Drug stock solutions were made in 100% DMSO then diluted with RPMI media for cell culture testing. All drug solutions were prepared fresh on the day of testing. The cultured cells were obtained at passage #118 and grown in RPMI media supplemented with 5% fetal calf serum, and 2 mM glutamine, 100 U/ml penicillin, 100 U/ml streptomycin, and 0.25 μg/ml amphotericin. The cultures were maintained in a humidified atmosphere of 95% air and 5% CO2 at 37° C. The cultures were passaged at preconfluent densities using a solution of 0.05% trypsin and 0.53 mM EDTA. All experiments involved HT-29 cells between passages 120 and 140. Cells were plated at the following densities to obtain cultures used for the experiments: 500 cells/well for 96 well flat-bottom microtiter plates, 1×10^6 cells per 25 cm^2 flask.
Tumor cell growth inhibition was assessed using the Sulforhodamine B (SRB) protein binding assay. In this assay, tumor cells were plated in 96-well plates and treated with drug-containing media for six days (continuous exposure). For each plate, 6 wells were designated as no treatment controls, six wells as vehicle (0.1% DMSO) controls, and the remaining wells for drug dilutions with six wells per drug concentration. At the end of the exposure period, the cells were fixed and stained with sulforhodamine B, a protein binding dye. The dye was then solubilized, and the optical density of the resulting solution was determined on a 96-well plate reader. The mean dye intensity of the treated wells was then divided by the mean dye intensity in the control wells (6 wells of each) to determine the effect of the drug on the cells. Dye intensity is proportional to the number of cells or amount of protein per well. The resultant "percent inhibition" value then represents the degree of growth inhibition caused by the drug.
For each experiment, an IC50 value was determined and used for comparative purposes. This value is equivalent to the concentration of drug needed to inhibit tumor cell growth by 50%. IC50 values were obtained graphically by connecting the mean values for each drug concentration tested. Each experiment included at least six wells per drug concentration. Concentration was plotted on a log scale on the X-axis.

prostaglandin synthesis = details: cited from earlier work
precancerous lesions = details: cited from earlier work
colonic polyps = details: cited from earlier work
[2] = system: DMBA-Induced Mammary Lesions; assay: Mouse mammary gland organ culture, DMBA-induced mammary lesions; type: cell-based, mouse (female BALB/c); details: 15 glands per group
Procedure: The compound of Example No. 17(d) was also tested for its ability to inhibit the incidence of mammary lesions in an organ culture system. This mouse mammary gland organ culture technique has been successfully used by other investigators to study the effects of known cancer-chemopreventativeagents such as retinoids and selenium.
Female BALB/c mice, 28 days old, were treated for nine days with a combination of 1 μg of estradiol and 1 mg of progesterone daily, in order to prime the glands to be responsive to hormones in vitro. The animals were sacrificed and thoracic mammary glands were excised aseptically and incubated for ten days in growth media supplemented with growth-promoting hormones: insulin, prolactin, and hydrocortisone, at 5 μg/ml each and aldosterone at 1 μg/ml. A twenty-four hour treatment of 7,12-dimethylbenz(a)anthracene (DMBA, 2 μg/ml) was carried out between days three and four to induce the formation of mammary lesions. Fully developed glands were deprived of prolactin, hydrocortisone, and aldosterone for 14 days, resulting in the regression of the glands but not the mammary lesions.
In order to evaluate the effects of Compound No. 17(d), it was dissolved in DMSO and added to the culture media supplemented for the duration of the culture period. At the end of the culture period, the glands were fixed in 10% formalin, stained with alum carmine, and mounted on glass slides. The incidence of forming mammary lesions is the ratio of the glands with mammary lesions and glands without lesions. The incidence of mammary lesions in compound 17(d) treated glands was compared with that of the untreated glands.
The extent of the area occupied by the mammary lesions was quantitated by projecting an image of the gland onto a digitation pad. The area covered by the gland was traced on the pad and considered as 100% of the area, The space covered by each of the unregressed structures was also outlined on the digitization pad and quantitated by the computer.

purified COX = assay: Cyclooxygenase (COX) inhibition, purified COX from ram seminal vesicles; type: biochemical; details: 100 μM dose; arachidonic acid 100 uM, 2.0 min at 37° C.
Procedure: Compounds of this invention, as well as several others (sce Table 2 below), were evaluated to determine whether they inhibited the production of prostaglandin according to the procedure below. COX is involved in the formation of prostaglandins and thromboxane by the oxidative metabolism of arachidonic acid. […] Briefly, purified COX was incubated with arachidonic acid (100 uM) for 2.0 min at 37° C. in the presence or absence of test compounds. The assay was terminated by the addition of TCA, and COX activity was determined by absorbance at 530 nm.

Structure (SMILES): CC1=C(CC(=O)O)c2cc(F)ccc2/C1=C\c1ccc(S(C)(=O)=O)cc1 [sulfone]
- activity as inhibitor of prostaglandin synthesis (prostaglandin synthesis): inactive as an inhibitor of prostaglandin synthesis
- activity as inhibitor of precancerous lesions (precancerous lesions): active as an inhibitor of precancerous lesions

Structure (SMILES): CC1=C(CC(=O)O)c2cc(F)ccc2/C1=C\c1ccc([S+](C)[O-])cc1 (stereo not drawn) [sulindac]
- effect on polyps when patients take the drug (colonic polyps): Polyps virtually disappear

Structure (SMILES): COc1cc(OC)c(OC)cc1/C=C1/C(C)=C(CC(=O)O)c2cc(F)ccc21 [17(g), (Z)-5-fluoro-2-methyl-1-(2,4,5-trimethoxybenzylidene)-3-indenylacetic acid]
- IC50 [1]: 40 µM

Structure (SMILES): CSc1ccc(/C=C2/C(C)=C(CC(=O)O)c3cc(F)ccc32)cc1 [Sulindac Sulfide, reference compound]
- activity as inhibitor of prostaglandin synthesis (prostaglandin synthesis): active moiety as a prostaglandin synthesis inhibitor
- % Inhibition (purified COX): 86%

Structure (SMILES): COc1cc(OC)c(/C=C2/C(C)=C(CC(=O)O)c3cc(F)ccc32)c(OC)c1 [17(e), (Z)-5-fluoro-2-methyl-1-(2,4,6-trimethoxybenzylidene)-3-indenylacetic acid]
- IC50 [1]: 61 µM

Continued, in another order:

- IC50 [1]: 40 µM
Structure (SMILES): COc1ccc(/C=C2/C(C)=C(CC(=O)O)c3cc(F)ccc32)c(OC)c1OC [17(f), (Z)-5-fluoro-2-methyl-1-(2,3,4-trimethoxybenzylidene)-3-indenylacetic acid]

- IC50 [1]: 58 µM
Structure (SMILES): CC1=C(CC(=O)O)c2cc(F)ccc2/C1=C\c1ccc(Cl)cc1 [17(b), (Z)-5-fluoro-2-methyl-1-(4-chlorobenzylidene)-3-indenylacetic acid]

- IC50 [1]: 39 µM
- % Inhibition (purified COX): No inhibition
Structure (SMILES): COc1cc(/C=C2/C(C)=C(CC(=O)O)c3cc(F)ccc32)cc(OC)c1OC [Example 17(d), (Z)-5-fluoro-2-methyl-1-(3,4,5-trimethoxybenzylidene)-3-indenylacetic acid]
- Glands with Lesions ([2]; 10 μm): 5
- Percent Incidence ([2]; 10 μm): 33.33%
- Glands with Lesions ([2]; 100 μm): 0
- Percent Incidence ([2]; 100 μm): 0.00%

- IC50 [1]: 40 µM
Structure (SMILES): CC1=C(CC(=O)O)c2cc(F)ccc2/C1=C\c1ccccc1 [17(a), (Z)-5-fluoro-2-methyl-1-benzylidene-3-indenylacetic acid]

- IC50 [1]: 29 µM
Structure (SMILES): COc1ccc(/C=C2/C(C)=C(CC(=O)O)c3cc(F)ccc32)cc1 [16(e), (Z)-5-fluoro-2-methyl-1-(p-methoxy-benzylidene)-3-indenylacetic acid]

- IC50 [1]: 31 µM
Structure (SMILES): CC1=C(CC(=O)O)c2cc(F)ccc2/C1=C\c1c(Cl)cccc1Cl [17(h), (Z)-5-fluoro-2-methyl-1-(2,6-dichlorobenzylidene)-3-indenylacetic acid]
